Measured values: US8389557B2, “Triazole derivatives useful as Axl inhibitors” (Rigel Pharmaceuticals, Inc., priority 2005, dated 2013)
Blank lines part the entries; values can stand above or below the molecule they belong to.

Target: T1, Axl (Homo sapiens, UniProt P30530)
T1 construct: endogenous in cells; host or cells: HeLa cells
T1 sequence (P30530 26-894): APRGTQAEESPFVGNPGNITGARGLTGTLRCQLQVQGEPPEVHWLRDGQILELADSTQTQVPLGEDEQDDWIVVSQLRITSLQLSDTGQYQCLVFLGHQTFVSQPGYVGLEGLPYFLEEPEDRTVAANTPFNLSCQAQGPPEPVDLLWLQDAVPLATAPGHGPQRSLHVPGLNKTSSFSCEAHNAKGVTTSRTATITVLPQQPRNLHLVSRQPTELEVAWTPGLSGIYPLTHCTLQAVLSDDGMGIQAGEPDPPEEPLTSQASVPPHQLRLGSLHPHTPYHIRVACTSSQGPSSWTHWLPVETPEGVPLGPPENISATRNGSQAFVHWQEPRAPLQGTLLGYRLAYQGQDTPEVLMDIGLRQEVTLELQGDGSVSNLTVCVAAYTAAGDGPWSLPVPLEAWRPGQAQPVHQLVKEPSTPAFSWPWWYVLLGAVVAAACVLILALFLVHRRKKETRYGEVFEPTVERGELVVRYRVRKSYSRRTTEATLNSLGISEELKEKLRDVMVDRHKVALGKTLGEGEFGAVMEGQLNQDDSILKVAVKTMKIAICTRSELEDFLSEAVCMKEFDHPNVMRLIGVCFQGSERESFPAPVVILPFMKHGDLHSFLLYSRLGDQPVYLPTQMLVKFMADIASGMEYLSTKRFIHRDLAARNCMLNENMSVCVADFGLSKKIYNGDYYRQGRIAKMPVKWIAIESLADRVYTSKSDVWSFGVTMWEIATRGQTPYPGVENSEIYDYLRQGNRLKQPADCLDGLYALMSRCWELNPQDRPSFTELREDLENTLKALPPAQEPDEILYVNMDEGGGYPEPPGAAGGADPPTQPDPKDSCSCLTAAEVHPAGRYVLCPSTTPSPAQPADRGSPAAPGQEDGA
Experiment: Phospho-Akt in-cell Western assay (inhibition of Axl activity)
Assay type: cell-based
How it was run: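 HeLa cells on poly-L-lysine, starved 24 h in 0.5% FCS DMEM with Axl/Fc 500 ng/mL, pre-treated with compound 1 h at 37° C. Axl stimulated 5 min by anti-Axl/anti-mouse antibody cross-linking. Fixed cells probed with anti-phospho-Akt and HRP secondary, chemiluminescence read.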

[1] = Table 8, Hela cells, Axl antibody cross-linking stimulation, phospho-Akt chemiluminescence
[2] = Table 7, Hela cells, Axl antibody cross-linking stimulation, phospho-Akt chemiluminescence
[3] = Table 2, Hela cells, Axl antibody cross-linking stimulation, phospho-Akt chemiluminescence
[4] = Table 3, Hela cells, Axl antibody cross-linking stimulation, phospho-Akt chemiluminescence
[5] = inhibition of Axl activity, phospho-Akt in-cell Western assay, Table 1
[6] = Table 5, Hela cells, Axl antibody cross-linking stimulation, phospho-Akt chemiluminescence
[7] = inhibition of Axl activity, Table 1

SMILES: CC(=O)N(C)c1ccc(Nc2nc(N)n(C(=O)NC3CCCCC3)n2)cc1 [compound 185, 3-[4-(acetyl(methyl)amino)phenyl]amino-5-amino-N-cyclohexyl-1H-1,2,4-triazole-1-carboxamide]
- IC50 [2]: > 20 µM

SMILES: CC(C)Oc1ccc(C(=O)n2nc(N)nc2Nc2ccc(N3CCCCC3)cc2)cc1 [compound 192, 3-amino-1-(4-(iso-propoxy)phenyl)carbonyl-5-[4-(piperidin-1-yl)phenylamino]-1H-1,2,4-triazole]
- IC50 [3]: 10 to 20 µM

SMILES: N#Cc1ccc(NC(=O)n2nc(Nc3ccc(OCCN4CCCCC4)cc3)nc2N)cc1 [compound 194, 5-amino-N-(4-cyanophenyl)-3-[4-[2-(piperidin-1-yl)ethoxy]phenylamino]-1H-1,2,4-triazole-1-carboxamide]
- IC50 [2]: > 20 µM

SMILES: CN(C)c1cccc(C(=O)n2nc(Nc3ccc(OCCN4CCCC4)cc3)nc2N)c1 [compound 197, 5-amino-1-(3-(dimethylamino)phenyl)carbonyl-3-[4-[2-(pyrrolidin-1-yl)ethoxy]phenylamino]-1H-1,2,4-triazole]
- IC50 [5]: > 20 µM

SMILES: COc1ccc(C(=O)n2nc(Nc3ccc(OCCN4CCCC4)cc3)nc2N)cc1OC [compound 198, 5-amino-1-(3,4-(dimethoxy)phenyl)carbonyl-3-[4-[2-(pyrrolidin-1-yl)ethoxy]phenylamino]-1H-1,2,4-triazole]
- IC50 [5]: > 20 µM

SMILES: CC(C)(C)OC(=O)n1nc(Nc2ccc(N3CCCCC3)cc2)nc1N [compound 201, 5-amino-3-[4-(piperidin-1-yl)phenylamino]-1-(tert-butoxycarbonyl)-1H-1,2,4-triazole]
- IC50 [2]: > 20 µM

SMILES: Nc1nc(Nc2ccc(OCCN3CCCC3)cc2)nn1C(=O)c1ccccn1 [compound 203, 5-amino-1-(pyridin-2-yl)carbonyl-3-[4-[2-(pyrrolidin-1-yl)ethoxy]phenylamino]-1H-1,2,4-triazole]
- IC50 [4]: > 20 µM

SMILES: Nc1nc(Nc2ccc(OCCN3CCCC3)cc2)nn1C(=O)c1ccncc1 [compound 204, 5-amino-1-(pyridin-4-yl)carbonyl-3-[4-[2-(pyrrolidin-1-yl)ethoxy]phenylamino]-1H-1,2,4-triazole]
- IC50 [4]: > 20 µM

SMILES: Cc1cccc(C(=O)n2nc(Nc3ccc4c(c3)N(C(=O)OC(C)(C)C)CCO4)nc2N)c1 [compound 206, 5-amino-3-[(2H,3H-4-tert-butoxycarbonylbenzo[1,4]oxazin-6-yl)amino]-1-(3-methylphenyl)carbonyl-1,2,4-triazole]
- IC50 [6]: > 20 µM

SMILES: Cc1cccc(C(=O)n2nc(Nc3ccc4oc(C(=O)NCCOC5CCCCO5)cc4c3)nc2N)c1 (stereo not drawn) [compound 207, 5-amino-1-(3-methylphenyl)carbonyl-3-[2-[N-[2-(tetrahydropyran-2-yloxy)ethyl]amino]carbonylbenzofuran-5-yl]amino-1H-1,2,4-triazole]
- IC50 [6]: 1 to 10 µM

SMILES: Cc1cccc(C(=O)n2nc(Nc3ccc4oc(C(=O)NCCO)cc4c3)nc2N)c1 [compound 208, 5-amino-3-[2-[2-hydroxyethylaminocarbonyl]benzofuran-5-yl]amino-1-(3-methylphenyl)carbonyl-1H-1,2,4-triazole]
- IC50 [6]: 1 to 10 µM

SMILES: Nc1nc(Nc2ccc3c(c2)OCCO3)n(C(=O)c2cccc(OCCC3OCCO3)c2)n1 [compound 209]
- IC50 [3]: > 20 µM

SMILES: Nc1nc(Nc2ccc3c(c2)OCCO3)nn1C(=O)c1cccc(OCCC2OCCO2)c1 [compound 210]
- IC50 [7]: 1 to 10 µM

SMILES: Cc1ccc(C(=O)n2nc(Nc3ccccc3O)nc2N)cc1 [compound 211, 5-amino-3-[2-(hydroxyl)phenylamino]-1-(4-methylphenyl)carbonyl-1H-1,2,4-triazole]
- IC50 [7]: > 20 µM

SMILES: COCCOCOc1cccc(Nc2nc(N)n(C(=O)c3cccc(C)c3)n2)c1 [compound 212, 5-amino-1-(3-methylphenyl)carbonyl-3-[3-[(2-methoxyethoxy)methoxy]phenylamino]-1H-1,2,4-triazole]
- IC50 [7]: 1 to 10 µM

SMILES: Nc1nc(Nc2ccc3c(c2)OCCO3)n(C(=O)c2ccc(OCCC3OCCO3)cc2)n1 [compound 213]
- IC50 [3]: > 20 µM

SMILES: Nc1nc(Nc2ccc3c(c2)OCCO3)nn1C(=O)c1ccc(OCCC2OCCO2)cc1 [compound 214]
- IC50 [7]: 1 to 10 µM

SMILES: Cc1cccc(C(=O)n2nc(Nc3ccc4c(c3)NCCO4)nc2N)c1 [compound 215, 5-amino-3-[(3,4-dihydrobenzo[1,4]oxazin-6-yl)amino]-1-(3-methylphenyl)carbonyl-1H-1,2,4-triazole]
- IC50 [6]: > 20 µM

SMILES: COCOc1cccc(Nc2nc(N)n(C(=O)c3cccc(C)c3)n2)c1 [compound 216, 5-amino-3-(3-methoxymethoxy)phenylamino-1-(3-methylphenyl)carbonyl-1H-1,2,4-triazole]
- IC50 [7]: > 20 µM

SMILES: Nc1nc(Nc2ccc(Cl)cc2)nn1C(=O)c1ccc(Cl)cc1 [compound 217, 5-amino-3-(4-chlorophenyl)amino-1-(4-chlorophenyl)carbonyl-1H-1,2,4-triazole]
- IC50 [7]: > 20 µM

SMILES: Nc1nc(Nc2ccc(Br)cc2)nn1C(=O)c1ccc(Cl)cc1 [compound 218, 5-amino-3-(4-bromophenyl)amino-1-(4-chlorophenyl)carbonyl-1H-1,2,4-triazole]
- IC50 [7]: 1 to 10 µM

SMILES: CCOC(=O)c1cc2cc(Nc3nc(N)n(C(=O)c4cccc(C)c4)n3)ccc2o1 [compound 219, 5-amino-3-[2-(ethoxycarbonyl)benzofuran-5-yl]amino-1-(3-methylphenyl)carbonyl-1H-1,2,4-triazole]
- IC50 [6]: 1 to 10 µM

SMILES: Cc1cccc(C(=O)n2nc(Nc3cccnc3)nc2N)c1 [compound 220, 5-amino-1-(3-methylphenyl)carbonyl-3-(pyridin-3-yl)amino-1H-1,2,4-triazole]
- IC50 [6]: > 20 µM

Continued, values first:

- IC50 [1]: 1 to 10 µM
SMILES: COc1ccc(NC(=O)n2nc(N)nc2Nc2ccc(OCCN3CCCCC3)cc2)cc1 [compound 184, 3-amino-N-(4-(methoxy)phenyl)-5-[4-[2-(piperidin-1-yl)ethoxy]phenylamino]-1H-1,2,4-triazole-1-carboxamide]

- IC50 [1]: 1 to 10 µM
SMILES: Cc1cccc(NC(=O)n2nc(N)nc2Nc2ccc(OCCN3CCCCC3)cc2)c1 [compound 187, 3-amino-N-(3-(methyl)phenyl)-5-[4-[2-(piperidin-1-yl)ethoxy]phenylamino]-1H-1,2,4-triazole-1-carboxamide]

- IC50 [1]: 1 to 10 µM
SMILES: COc1cc(NC(=O)n2nc(N)nc2Nc2ccc(OCCN3CCCCC3)cc2)cc(OC)c1 [compound 188, 3-amino-N-(3,5-dimethoxyphenyl)-5-[4-[2-(piperidin-1-yl)ethoxy]phenylamino]-1H-1,2,4-triazole-1-carboxamide]

- IC50 [1]: 1 to 10 µM
SMILES: Nc1nc(Nc2ccc(OCCN3CCCCC3)cc2)n(C(=O)NC2CCCCC2)n1 [compound 189, 3-amino-N-cyclohexyl-5-[4-[2-(piperidin-1-yl)ethoxy]phenylamino]-1H-1,2,4-triazole-1-carboxamide]

- IC50 [1]: > 20 µM
SMILES: Nc1nc(Nc2ccc(OCCN3CCCCC3)cc2)n(C(=O)NC2CCCC2)n1 [compound 190, 3-amino-N-cyclopentyl-5-[4-[2-(piperidin-1-yl)ethoxy]phenylamino]-1H-1,2,4-triazole-1-carboxamide]

- IC50 [3]: 1 to 10 µM
SMILES: CC(C)Oc1ccc(C(=O)n2nc(N)nc2Nc2ccc(OCCN3CCCC3)cc2)cc1 [compound 191, 3-amino-1-(4-iso-propoxyphenyl)carbonyl-5-[4-[2-(pyrrolidin-1-yl)ethoxy]phenylamino]-1H-1,2,4-triazole]

- IC50 [1]: 1 to 10 µM
SMILES: Nc1nc(Nc2ccc(OCCN3CCCCC3)cc2)n(C(=O)Nc2ccc3c(c2)OCO3)n1 [compound 193, 3-amino-N-(1,3-benzodioxol-5-yl)-5-[4-[2-(piperidin-1-yl)ethoxy]phenylamino]-1H-1,2,4-triazole-1-carboxamide]

- IC50 [4]: > 20 µM
SMILES: Nc1nc(Nc2ccc(OCCN3CCCC3)cc2)nn1C(=O)C1CC2C=CC1C2 (stereo not drawn) [compound 196, 5-amino-1-[2-(bicyclo[2.2.1]hept-5-ene)carbonyl]-3-[4-[2-(pyrrolidin-1-yl)ethoxy]phenylamino]-1H-1,2,4-triazole]

- IC50 [2]: > 20 µM
SMILES: Cc1cc(C)cc(NC(=O)n2nc(Nc3ccc(OCCN4CCCCC4)cc3)nc2N)c1 [compound 199, 5-amino-N-(3,5-(dimethyl)phenyl)-3-[4-[2-(piperidin-1-yl)ethoxy]phenylamino]-1H-1,2,4-triazole-1-carboxamide]

- IC50 [4]: > 20 µM
SMILES: Nc1nc(Nc2ccc(OCCN3CCCC3)cc2)nn1C(=O)C1CC2CCC1C2 (stereo not drawn) [compound 200, 5-amino-1-[2-(bicyclo[2.2.1]heptane)carbonyl]-3-[4-[2-(pyrrolidin-1-yl)ethoxy]phenylamino]-1H-1,2,4-triazole]
